pIC50: −log10 of the molar value.

This assay deals with T1, human TPH1 (Homo sapiens, UniProt P17752).
T1 sequence (P17752 1-444): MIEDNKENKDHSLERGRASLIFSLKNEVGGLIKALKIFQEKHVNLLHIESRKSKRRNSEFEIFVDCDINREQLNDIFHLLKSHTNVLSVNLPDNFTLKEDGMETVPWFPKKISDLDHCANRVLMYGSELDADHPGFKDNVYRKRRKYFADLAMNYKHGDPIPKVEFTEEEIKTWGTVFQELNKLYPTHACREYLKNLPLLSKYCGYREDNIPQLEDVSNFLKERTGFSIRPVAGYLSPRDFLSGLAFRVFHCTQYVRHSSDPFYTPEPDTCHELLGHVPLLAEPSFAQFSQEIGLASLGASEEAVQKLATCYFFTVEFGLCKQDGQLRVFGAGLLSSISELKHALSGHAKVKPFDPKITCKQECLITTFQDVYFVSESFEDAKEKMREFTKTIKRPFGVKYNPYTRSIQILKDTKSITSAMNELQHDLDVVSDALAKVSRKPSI
The assay is described as follows: biochemical. A digest of the protocol: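 Inhibition is derived from 5-hydroxy-L-tryptophan fluorescence (540 nm emission, 300 nm excitation) after perchloric acid stop, relative to DMSO vehicle. Recombinant full-length human enzyme (40-80 nM) reacts with 40 μM tryptophan plus 100 μM methyltetrahydropterin, pH 7.6 Tris/DTT/catalase, 15° C, 60 min.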
By pIC50 is commonly meant −log10 of the IC50, conventionally taken in molar units. `COc1ccc(C2c3c(nc4cc(Cl)c(C)cn34)CCN2C(=O)COc2ccc3ccccc3c2)cc1OC` (stereo not drawn) [Example 13.1.1, 1-(7-chloro-1-(3,4-dimethoxyphenyl)-8-methyl-3,4-dihydroimidazo[1,2-a:5,4-c′]dipyridin-2(1H)-yl)-2-(naphthalen-2-yloxy)ethan-1-one] showed a negative logarithm of the IC50 (pIC50) of 7.40. In the case of `COc1ccc(C2c3c(nc4cc(C(C)(C)C)ccn34)CCN2C(=O)COc2ccc(Cl)cc2Cl)cc1OC` (stereo not drawn) [Example 5.1.1, 1-(7-(tert-butyl)-1-(3,4-dimethoxyphenyl)-3,4-dihydroimidazo[1,2-a:5,4-c′]dipyridin-2(1H)-yl)-2-(2,4-dichlorophenoxy)ethan-1-one] it was 8.00; in that of `Cc1cc(Cl)ccc1OCC(=O)N1CCc2nc3cc(C(F)(F)F)ccn3c2C1c1ncccc1F` (stereo not drawn) [Example 3.21.4, 2-(4-chloro-2-methylphenoxy)-1-(1-(3-fluoropyridin-2-yl)-7-(trifluoromethyl)-3,4-dihydroimidazo[1,2-a:5,4-c′]dipyridin-2(1H)-yl)ethan-1-one], 6.33; in that of `O=C(COc1ccc(N2CCOCC2)nc1Cl)N1CCc2nc3ccccn3c2C1c1ncc(C2CC2)cc1F` (stereo not drawn) [Example 1.12.1, 2-((2-chloro-6-morpholinopyridin-3-yl)oxy)-1-(1-(5-cyclopropyl-3-fluoropyridin-2-yl)-3,4-dihydroimidazo[1,2-a:5,4-c′]dipyridin-2(1H)-yl)ethan-1-one], 8.10.

The molecule `COc1ccc(C2c3c(nc4cc(C(F)(F)F)ccn34)CCN2C(=O)COc2ccc3ccccc3c2)nc1OC` (stereo not drawn) [Example 3.20.1, 1-(1-(5,6-dimethoxypyridin-2-yl)-7-(trifluoromethyl)-3,4-dihydroimidazo[1,2-a:5,4-c′]dipyridin-2(1H)-yl)-2-(naphthalen-2-yloxy)ethan-1-one] showed a pIC50 of 7.28. As for `COc1cc(F)c(C2c3c(nc4cc(C(F)(F)F)ccn34)CCN2C(=O)COc2ccc3c(c2)CN(C(=O)CO)CC3)cc1OC` (stereo not drawn) [Example 3.18.7, 1-(1-(2-fluoro-4,5-dimethoxyphenyl)-7-(trifluoromethyl)-3,4-dihydroimidazo[1,2-a:5,4-c′]dipyridin-2(1H)-yl)-2-((2-(2-hydroxyacetyl)-1,2,3,4-tetrahydroisoquinolin-7-yl)oxy)ethan-1-one], the figure is 8.40; as for `Cc1ccc(C2c3c(nc4cc(Cl)ccn34)CCN2C(=O)COc2ccc(NS(C)(=O)=O)nc2Cl)c(F)c1` (stereo not drawn) [Example 2.15.1, N-(6-chloro-5-(2-(7-chloro-1-(2-fluoro-4-methylphenyl)-3,4-dihydroimidazo[1,2-a:5,4-c′]dipyridin-2(1H)-yl)-2-oxoethoxy)pyridin-2-yl)methanesulfonamide], 7.29; as for `O=C(COc1ccc[n+]([O-])c1Cl)N1CCc2nc3cc(C(F)(F)F)ccn3c2C1c1ccc(C2CC2)cc1F` (stereo not drawn) [Example 3.5.4, 2-((2-chloro-1-(I1-oxidanyl)-1I4-pyridin-3-yl)oxy)-1-(1-(4-cyclopropyl-2-fluorophenyl)-7-(trifluoromethyl)-3,4-dihydroimidazo[1,2-a:5,4-c′]dipyridin-2(1H)-yl)ethan-1-one], 6.68.

Molecule `O=C(COc1ccc2ccccc2c1)N1CCc2nc3cc(C(F)(F)F)ccn3c2C1c1cc2cccnc2s1` (stereo not drawn) [Example 3.49.1, 2-(naphthalen-2-yloxy)-1-(1-(thieno[2,3-b]pyridin-2-yl)-7-(trifluoromethyl)-3,4-dihydroimidazo[1,2-a:5,4-c′]dipyridin-2(1H)-yl)ethan-1-one] showed a pIC50 of 7.33. Take `CCc1cc(N2CCN(C)CC2)ccc1OCC(=O)N1CCc2nc3cc(C(F)(F)F)ccn3c2C1c1ccc(OC)c(OC)c1` (stereo not drawn) [Example 3.1.32, 1-(1-(3,4-dimethoxyphenyl)-7-(trifluoromethyl)-3,4-dihydroimidazo[1,2-a:5,4-c′]dipyridin-2(1H)-yl)-2-(2-ethyl-4-(4-methylpiperazin-1-yl)phenoxy)ethan-1-one]: the pIC50 was 7.68. In the case of `Cc1c(CN2CCOCC2)ccc(OCC(=O)N2CCc3nc4cc(C(F)(F)F)ccn4c3C2c2cnn(-c3ccccc3)c2)c1C` (stereo not drawn) [Example 3.41.3, 2-(2,3-dimethyl-4-(morpholinomethyl)phenoxy)-1-(1-(1-phenyl-1H-pyrazol-4-yl)-7-(trifluoromethyl)-3,4-dihydroimidazo[1,2-a:5,4-c′]dipyridin-2(1H)-yl)ethan-1-one] it was 7.17; in that of `CCOc1ccc(C2c3c(nc4cc(C(F)(F)F)ccn34)CCN2C(=O)COc2ccc3ccccc3c2)cc1` (stereo not drawn) [Example 3.25.1, 1-(1-(4-ethoxyphenyl)-7-(trifluoromethyl)-3,4-dihydroimidazo[1,2-a:5,4-c′]dipyridin-2(1H)-yl)-2-(naphthalen-2-yloxy)ethan-1-one], 6.98; in that of `COc1cc(F)c(C2c3c(nc4cc(C(F)(F)F)ccn34)CCN2C(=O)COc2ccc3c(c2)CN(C(=O)OC(C)(C)C)CC3)cc1OC` (stereo not drawn) [Example 3.18.3, tert-butyl 7-(2-(1-(2-fluoro-4,5-dimethoxyphenyl)-7-(trifluoromethyl)-3,4-dihydroimidazo[1,2-a:5,4-c′]dipyridin-2(1H)-yl)-2-oxoethoxy)-3,4-dihydroisoquinoline-2(1H)-carboxylate], 8.05. In the case of `CS(=O)(=O)Nc1ccc(OCC(=O)N2CCc3nc4ccccn4c3C2c2ccc(OCCO)cc2F)c(Cl)n1` (stereo not drawn) [Example 1.22.2, N-(6-Chloro-5-(2-(1-(2-fluoro-4-(2-hydroxyethoxy)phenyl)-3,4-dihydroimidazo[1,2-a:5,4-c′]dipyridin-2(1H)-yl)-2-oxoethoxy)pyridin-2-yl)methanesulfonamide] it was 7.42; in that of `O=C(COc1ccc(N2CCOCC2)nc1Cl)N1CCc2nc3cc(C(F)(F)F)ccn3c2C1c1ccc(Cl)cc1F` (stereo not drawn) [Example 3.4.6, 1-(1-(4-chloro-2-fluorophenyl)-7-(trifluoromethyl)-3,4-dihydroimidazo[1,2-a:5,4-c′]dipyridin-2(1H)-yl)-2-((2-chloro-6-morpholinopyridin-3-yl)oxy)ethan-1-one], 8.30.

On to `CN(C)C(=O)c1ccc(OC(C)(C)C(=O)N2CCc3nc4ccccn4c3C2c2ccc(Cl)cc2F)c(Cl)n1` (stereo not drawn) [Example 1.4.17, 6-chloro-5-((1-(1-(4-chloro-2-fluorophenyl)-3,4-dihydroimidazo[1,2-a:5,4-c′]dipyridin-2(1H)-yl)-2-methyl-1-oxopropan-2-yl)oxy)-N,N-dimethylpicolinamide], for which the pIC50 was 6.02. In the case of `CS(=O)(=O)Nc1ccc(OCC(=O)N2CCc3nc4ccccn4c3C2c2ccc(OC(F)(F)F)cc2F)c(Cl)n1` (stereo not drawn) [Example 1.19.1, N-(6-chloro-5-(2-(1-(2-fluoro-4-(trifluoromethoxy)phenyl)-3,4-dihydroimidazo[1,2-a:5,4-c′]dipyridin-2(1H)-yl)-2-oxoethoxy)pyridin-2-yl)methanesulfonamide0.71] it was 6.95. In the case of `COc1cc(C2c3c(nc4cc(C(F)(F)F)ccn34)CCN2C(=O)COc2ccc3ccccc3c2)ccc1O` (stereo not drawn) [Example 3.11.1, 1-(1-(4-hydroxy-3-methoxyphenyl)-7-(trifluoromethyl)-3,4-dihydroimidazo[1,2-a:5,4-c′]dipyridin-2(1H)-yl)-2-(naphthalen-2-yloxy)ethan-1-one] it was 6.50.
